Data on 21 compounds can be found in publication PMC3495175 (Bioorganic & medicinal chemistry, 2012).

SMILES strings stand for the structures.

For one experiment, the target named is MtMetAP1c (Mycobacterium tuberculosis, UniProt P9WK19). The experiment in a line: MtMetAP1c coupled enzyme assay. It counts as biochemical. The following applies: for IC50: IC50 (µM), MtMetAP 1c, 100 nM enzyme.
The next experiment deals with MtMetAP1a (Mycobacterium tuberculosis, UniProt P9WK21). In words: MtMetAP1a coupled enzyme assay. It counts as biochemical. The conditions noted are these: for IC50: IC50 (µM), MtMetAP 1a, 200 nM enzyme; for Inhibition of MtMetAP1a (in words): both metalloforms (Co2+, Mn2+).
MtMetAP1a, sequence (P9WK21 whole entry): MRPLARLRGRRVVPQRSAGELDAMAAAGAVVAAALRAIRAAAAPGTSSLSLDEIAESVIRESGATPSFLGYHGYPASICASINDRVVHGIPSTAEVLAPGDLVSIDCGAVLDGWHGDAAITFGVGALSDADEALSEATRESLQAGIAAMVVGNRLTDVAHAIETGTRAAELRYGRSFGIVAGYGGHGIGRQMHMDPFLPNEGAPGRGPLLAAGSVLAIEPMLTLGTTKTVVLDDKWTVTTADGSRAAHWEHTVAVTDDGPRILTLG
Setting [1] is: Co2+, Co2+ cofactor (10 µM CoCl2).
Where [2] appears, read: Mn2+, Mn2+ cofactor (10 µM MnCl2).

Usually IC50 stands for the concentration needed to halve the response being measured. High values mean a need for much substance, low ones inhibition by little substance.

MtMetAP1c, sequence (P9WK19 whole entry): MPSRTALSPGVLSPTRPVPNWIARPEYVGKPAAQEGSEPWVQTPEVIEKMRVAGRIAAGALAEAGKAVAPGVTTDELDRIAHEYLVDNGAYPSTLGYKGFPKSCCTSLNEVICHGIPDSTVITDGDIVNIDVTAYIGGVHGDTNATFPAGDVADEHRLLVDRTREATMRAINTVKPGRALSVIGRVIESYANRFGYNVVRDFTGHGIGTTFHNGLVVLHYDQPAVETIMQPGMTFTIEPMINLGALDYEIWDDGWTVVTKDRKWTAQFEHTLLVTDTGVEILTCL

With `COc1ccc2c(c1)CCc1sc(/N=C/c3ccco3)nc1-2` [3t], the IC50 against MtMetAP1c (setting [1]), against MtMetAP1c (setting [2]), at MtMetAP1a (setting [1]) and on MtMetAP1a (setting [2]) was above 50 µM in each case.

With `COc1cc2c(cc1OC)-c1nc(N/C=N\O)sc1CC2` [4e], at MtMetAP1c (setting [2]), the IC50 was above 50 µM.

At MtMetAP1a (setting [2]), `O/N=C\Nc1nc2c(s1)CCCc1cc3c(cc1-2)OCO3` [4j] displayed an IC50 above 50 µM.

For the compound `O/N=C\Nc1nc2c(s1)COc1cc3c(cc1-2)OCO3` [4h], the IC50 on MtMetAP1a (setting [2]) is above 10 µM.

For the compound `O/N=C\Nc1nc2c(s1)CCc1ccccc1-2` [4a], the IC50 against MtMetAP1c (setting [2]) and against MtMetAP1a (setting [2]) was above 50 µM each time.

Take `O/N=C\Nc1nc2c(s1)CCc1cc3c(cc1-2)OCO3` [4f]: at MtMetAP1a (setting [2]), the IC50 was above 20 µM.

Turning to `COc1ccc2c(c1)-c1nc(NC=NO)sc1CC2` [4b, N'-hydroxy-N-(8-methoxy-4H,5H-naphtho[1,2-d]thiazol-2-yl)methanimidamide], the IC50 against MtMetAP1a (setting [2]) is above 50 µM.

As for `Nc1nc2c(s1)CCc1ccccc1-2` [3n, reference compound], the IC50 on MtMetAP1c (setting [1]), against MtMetAP1c (setting [2]), on MtMetAP1a (setting [1]) and at MtMetAP1a (setting [2]) was above 50 µM each time.

With `CCCCCCCCC(=O)Nc1nc2c(s1)CCc1cc(OC)ccc1-2` [3r, reference compound], the IC50 against MtMetAP1c (setting [1]), on MtMetAP1c (setting [2]), at MtMetAP1a (setting [1]) and against MtMetAP1a (setting [2]) was above 50 µM each time.

Turning to `CCCCCCCCC(=O)Nc1nc2c(s1)CCc1ccccc1-2` [3q, reference compound], the IC50 on MtMetAP1c (setting [1]), on MtMetAP1c (setting [2]), at MtMetAP1a (setting [1]) and on MtMetAP1a (setting [2]) was above 50 µM in each case.

Consider `COc1ccc(-c2csc(N/C=N\O)n2)cc1OC` [4m], for which the “Inhibition of MtMetAP1c (in words)” value at MtMetAP1c is recorded as “moderate potency”. The IC50 against MtMetAP1a (setting [1]) and on MtMetAP1a (setting [2]) was above 20 µM in each case.

With `COc1ccc2c(c1)CCc1sc(NC(=O)[C@H](C)O)nc1-2` [3s, (S)-2-Hydroxy-N-(7-methoxy-4H,5H-naphtho[1,2-d]thiazol-2-yl)propanamide], the IC50 on MtMetAP1c (setting [1]), on MtMetAP1c (setting [2]), at MtMetAP1a (setting [1]) and on MtMetAP1a (setting [2]) was above 50 µM throughout.

With `COc1ccc2c(c1)CCc1sc(N/C=N\O)nc1-2` [4c, N'-hydroxy-N-(7-methoxy-4H,5H-naphtho[1,2-d]thiazol-2-yl)methanimidamide], the IC50 at MtMetAP1c (setting [2]) and against MtMetAP1a (setting [2]) was above 50 µM in each case.

With `COc1ccc2c(c1)CCc1sc(NC(C)=O)nc1-2` [3p, reference compound], the IC50 on MtMetAP1c (setting [1]), against MtMetAP1c (setting [2]), against MtMetAP1a (setting [1]) and against MtMetAP1a (setting [2]) was above 50 µM in each case.

For the compound `COc1ccc2c(c1)CCc1sc(/N=C/c3ccccc3O)nc1-2` [3v], the IC50 on MtMetAP1c (setting [1]), on MtMetAP1c (setting [2]), against MtMetAP1a (setting [1]) and against MtMetAP1a (setting [2]) was above 50 µM each time.

For `COc1ccc2c(c1)Cc1sc(N/C=N\O)nc1-2` [4l], the IC50 at MtMetAP1c (setting [1]), against MtMetAP1c (setting [2]), on MtMetAP1a (setting [1]) and against MtMetAP1a (setting [2]) was above 50 µM each time.

As to `CN(C)/C=N/c1nc2c(s1)CCc1ccccc1-2` [3a], the IC50 at MtMetAP1c (setting [2]) is above 50 µM.

Consider `COc1ccc2c(c1)OC(c1ccccc1)c1sc(N/C=N\O)nc1-2` (stereo not shown) [4i], for which the “Inhibition of MtMetAP1c (in words)” value on MtMetAP1c is reported as “did not inhibit”. Moreover, the IC50 on MtMetAP1c (setting [1]) and on MtMetAP1c (setting [2]) was above 50 µM in each case. The “Inhibition of MtMetAP1a (in words)” value at MtMetAP1a was “moderate inhibition”.

Regarding `COc1ccc2c(c1)CCc1sc(NCc3ccco3)nc1-2` [3u, N-(Furan-2-ylmethyl)-7-methoxy-4H,5H-naphtho[1,2-d]thiazol-2-amine], the IC50 against MtMetAP1c (setting [1]), against MtMetAP1c (setting [2]), against MtMetAP1a (setting [1]) and on MtMetAP1a (setting [2]) was above 50 µM each time.

With `COc1ccc2c(c1)CCc1sc(N)nc1-2` [3o, reference compound], the IC50 on MtMetAP1c (setting [1]), against MtMetAP1c (setting [2]), against MtMetAP1a (setting [1]) and against MtMetAP1a (setting [2]) was above 50 µM in each case.

As for `COc1ccc2c(c1)OCc1sc(N/C=N\O)nc1-2` [4g], on MtMetAP1c, the “Inhibition of MtMetAP1c (in words)” value is “did not inhibit”. The IC50 against MtMetAP1c (setting [1]) and against MtMetAP1c (setting [2]) was above 50 µM in each case. The “Inhibition of MtMetAP1a (in words)” value at MtMetAP1a is “moderate inhibition”.
